From ChEMBL document CHEMBL4017480, “Discovery and optimization of selective FGFR4 inhibitors via scaffold hopping” (Bioorg Med Chem Lett, 2017)

Experiments:
[1] = Apparent permeability from apical to basolateral side in MDCK2-MDR1 cells at 2 uM after 2.5 hrs LC-MS/MS analysis; format: ADME, cell-based, Canis lupus familiaris; details: dog, MDCK-MDR1
[2] = target: T1, Cytochrome P450 1A2 (Homo sapiens, UniProt P05177); test: Inhibition of CYP1A2 in human liver microsomes using phenacetin as substrate pretreated for 10 mins followed by substrate addition measured after 10 mins in presence of NADPH by LC-MS/MS method; format: ADME
T1 sequence (P05177 whole entry): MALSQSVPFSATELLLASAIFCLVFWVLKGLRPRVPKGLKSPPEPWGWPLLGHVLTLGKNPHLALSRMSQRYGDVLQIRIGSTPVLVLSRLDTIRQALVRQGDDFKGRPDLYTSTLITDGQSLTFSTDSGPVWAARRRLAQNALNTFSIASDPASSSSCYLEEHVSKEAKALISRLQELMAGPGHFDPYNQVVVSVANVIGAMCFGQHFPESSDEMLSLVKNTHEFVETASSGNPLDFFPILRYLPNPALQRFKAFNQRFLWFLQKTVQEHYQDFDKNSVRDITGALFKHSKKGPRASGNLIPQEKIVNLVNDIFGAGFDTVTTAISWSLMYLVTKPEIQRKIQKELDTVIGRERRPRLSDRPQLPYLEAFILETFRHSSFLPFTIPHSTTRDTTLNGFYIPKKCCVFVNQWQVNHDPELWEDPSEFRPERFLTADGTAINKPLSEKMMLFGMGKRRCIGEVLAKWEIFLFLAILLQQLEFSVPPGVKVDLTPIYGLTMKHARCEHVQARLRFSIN

[3] = target: Cytochrome P450 2C9 (Homo sapiens, UniProt P11712); test: Inhibition of CYP2C9 in human liver microsomes using diclofenac as substrate pretreated for 10 mins followed by substrate addition measured after 10 mins in presence of NADPH by LC-MS/MS method; format: ADME
[4] = target: Cytochrome P450 3A4 (Homo sapiens, UniProt P08684); test: Inhibition of CYP3A4 in human liver microsomes using midazolam as substrate pretreated for 10 mins followed by substrate addition measured after 10 mins in presence of NADPH by LC-MS/MS method; format: ADME
[5] = Stability in mouse plasma assessed as compound remaining at 2 uM measured after 2 hrs by LC-MS/MS analysis; format: ADME, cell-free; details: read-out: Stability
[6] = Intrinsic clearance in mouse liver microsomes at 1 uM measured after 60 mins in presence of NADPH by LC-MS/MS analysis; format: ADME, microsome; details: read-out: CLH
[7] = target: VEGFR2 (Homo sapiens, UniProt P35968); test: Inhibition of human VEGFR2 at 10 uM using poly[Glu:Tyr] (4:1) as substrate measured after 120 mins in presence of [gamma33P]ATP by P81 ion exchange chromatographic method relative to control; details: human VEGFR2 kinase, probe poly[Glu:Tyr] (4:1)
[8] = target: Tyrosine-protein kinase BTK (Homo sapiens, UniProt Q06187); test: Inhibition of human BTK at 10 uM using KVEKIGEGTYGVVYK as substrate measured after 120 mins in presence of [gamma33P]ATP by P81 ion exchange chromatographic method relative to control
[9] = target: T2, Tyrosine-protein kinase JAK3 (Homo sapiens) (UniProt P52333); test: Inhibition of human JAK3 at 10 uM using GEEEEYFELVKKKK as substrate measured after 120 mins in presence of [gamma33P]ATP by P81 ion exchange chromatographic method relative to control
T2 sequence (whole entry): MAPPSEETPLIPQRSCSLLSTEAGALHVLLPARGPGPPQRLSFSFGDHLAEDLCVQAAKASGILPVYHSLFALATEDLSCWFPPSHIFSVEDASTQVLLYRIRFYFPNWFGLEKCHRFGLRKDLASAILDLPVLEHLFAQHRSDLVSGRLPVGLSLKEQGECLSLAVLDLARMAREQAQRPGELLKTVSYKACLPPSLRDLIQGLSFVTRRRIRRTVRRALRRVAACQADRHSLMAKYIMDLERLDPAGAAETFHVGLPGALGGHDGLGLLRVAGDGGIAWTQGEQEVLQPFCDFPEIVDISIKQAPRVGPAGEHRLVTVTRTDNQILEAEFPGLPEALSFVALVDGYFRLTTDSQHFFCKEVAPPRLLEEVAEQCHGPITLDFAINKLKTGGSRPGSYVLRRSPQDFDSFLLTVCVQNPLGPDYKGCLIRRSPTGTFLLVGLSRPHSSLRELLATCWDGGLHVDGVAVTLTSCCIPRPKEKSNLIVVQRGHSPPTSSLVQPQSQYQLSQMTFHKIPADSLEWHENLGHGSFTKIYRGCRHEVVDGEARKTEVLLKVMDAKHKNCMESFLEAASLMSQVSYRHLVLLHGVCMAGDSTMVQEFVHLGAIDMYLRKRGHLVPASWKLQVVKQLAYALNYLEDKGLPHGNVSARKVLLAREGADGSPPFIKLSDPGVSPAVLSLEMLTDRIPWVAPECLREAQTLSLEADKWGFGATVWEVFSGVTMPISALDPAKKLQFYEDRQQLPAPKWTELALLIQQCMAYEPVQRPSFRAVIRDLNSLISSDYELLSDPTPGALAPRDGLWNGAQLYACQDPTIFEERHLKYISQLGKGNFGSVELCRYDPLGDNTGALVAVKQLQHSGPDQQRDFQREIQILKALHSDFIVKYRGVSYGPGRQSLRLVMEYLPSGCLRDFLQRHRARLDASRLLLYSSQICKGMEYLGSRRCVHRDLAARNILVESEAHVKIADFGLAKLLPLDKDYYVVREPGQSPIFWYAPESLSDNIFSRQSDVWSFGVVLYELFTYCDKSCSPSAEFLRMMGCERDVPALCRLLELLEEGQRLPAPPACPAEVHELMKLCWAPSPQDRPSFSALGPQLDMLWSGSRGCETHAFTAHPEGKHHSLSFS

[10] = target: Vascular endothelial growth factor receptor 2 (Homo sapiens, UniProt P35968); test: Inhibition of human VEGFR2 using poly[Glu:Tyr] (4:1) as substrate measured after 120 mins in presence of [gamma33P]ATP by P81 ion exchange chromatographic method
[11] = target: Epidermal growth factor receptor (Homo sapiens, UniProt P00533); test: Inhibition of human EGFR using poly[Glu:Tyr] (4:1) as substrate measured after 120 mins in presence of [gamma33P]ATP by P81 ion exchange chromatographic method
[12] = target: Macrophage colony-stimulating factor 1 receptor (Homo sapiens, UniProt P07333); test: Inhibition of human FMS using poly[Glu:Tyr] (4:1) as substrate measured after 120 mins in presence of [gamma33P]ATP by P81 ion exchange chromatographic method
[13] = target: T3, Tyrosine-protein kinase JAK3 (Homo sapiens, UniProt P52333); test: Inhibition of human JAK3 using GEEEEYFELVKKKK as substrate measured after 120 mins in presence of [gamma33P]ATP by P81 ion exchange chromatographic method
T3 sequence (P52333 whole entry): T2 sequence (whole entry)

Sequence of Tyrosine-protein kinase BTK (Q06187 whole entry): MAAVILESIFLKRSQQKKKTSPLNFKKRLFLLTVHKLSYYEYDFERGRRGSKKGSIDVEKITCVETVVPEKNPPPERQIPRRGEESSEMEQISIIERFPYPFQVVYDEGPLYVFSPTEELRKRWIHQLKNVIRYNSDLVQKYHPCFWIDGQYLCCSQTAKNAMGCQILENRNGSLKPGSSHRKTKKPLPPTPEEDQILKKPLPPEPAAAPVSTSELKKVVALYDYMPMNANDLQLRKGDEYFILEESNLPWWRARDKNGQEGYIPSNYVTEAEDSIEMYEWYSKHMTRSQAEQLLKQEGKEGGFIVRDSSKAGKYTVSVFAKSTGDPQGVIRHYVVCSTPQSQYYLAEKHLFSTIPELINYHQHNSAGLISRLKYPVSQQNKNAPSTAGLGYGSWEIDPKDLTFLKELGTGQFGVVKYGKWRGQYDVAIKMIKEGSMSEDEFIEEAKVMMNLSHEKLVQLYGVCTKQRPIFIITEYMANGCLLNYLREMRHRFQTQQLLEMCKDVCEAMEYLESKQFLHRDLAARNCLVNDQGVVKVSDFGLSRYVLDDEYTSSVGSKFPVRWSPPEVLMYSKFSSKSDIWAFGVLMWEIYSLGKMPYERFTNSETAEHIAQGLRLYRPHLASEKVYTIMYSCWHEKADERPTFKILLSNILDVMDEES
Sequence of Vascular endothelial growth factor receptor 2 (P35968 whole entry): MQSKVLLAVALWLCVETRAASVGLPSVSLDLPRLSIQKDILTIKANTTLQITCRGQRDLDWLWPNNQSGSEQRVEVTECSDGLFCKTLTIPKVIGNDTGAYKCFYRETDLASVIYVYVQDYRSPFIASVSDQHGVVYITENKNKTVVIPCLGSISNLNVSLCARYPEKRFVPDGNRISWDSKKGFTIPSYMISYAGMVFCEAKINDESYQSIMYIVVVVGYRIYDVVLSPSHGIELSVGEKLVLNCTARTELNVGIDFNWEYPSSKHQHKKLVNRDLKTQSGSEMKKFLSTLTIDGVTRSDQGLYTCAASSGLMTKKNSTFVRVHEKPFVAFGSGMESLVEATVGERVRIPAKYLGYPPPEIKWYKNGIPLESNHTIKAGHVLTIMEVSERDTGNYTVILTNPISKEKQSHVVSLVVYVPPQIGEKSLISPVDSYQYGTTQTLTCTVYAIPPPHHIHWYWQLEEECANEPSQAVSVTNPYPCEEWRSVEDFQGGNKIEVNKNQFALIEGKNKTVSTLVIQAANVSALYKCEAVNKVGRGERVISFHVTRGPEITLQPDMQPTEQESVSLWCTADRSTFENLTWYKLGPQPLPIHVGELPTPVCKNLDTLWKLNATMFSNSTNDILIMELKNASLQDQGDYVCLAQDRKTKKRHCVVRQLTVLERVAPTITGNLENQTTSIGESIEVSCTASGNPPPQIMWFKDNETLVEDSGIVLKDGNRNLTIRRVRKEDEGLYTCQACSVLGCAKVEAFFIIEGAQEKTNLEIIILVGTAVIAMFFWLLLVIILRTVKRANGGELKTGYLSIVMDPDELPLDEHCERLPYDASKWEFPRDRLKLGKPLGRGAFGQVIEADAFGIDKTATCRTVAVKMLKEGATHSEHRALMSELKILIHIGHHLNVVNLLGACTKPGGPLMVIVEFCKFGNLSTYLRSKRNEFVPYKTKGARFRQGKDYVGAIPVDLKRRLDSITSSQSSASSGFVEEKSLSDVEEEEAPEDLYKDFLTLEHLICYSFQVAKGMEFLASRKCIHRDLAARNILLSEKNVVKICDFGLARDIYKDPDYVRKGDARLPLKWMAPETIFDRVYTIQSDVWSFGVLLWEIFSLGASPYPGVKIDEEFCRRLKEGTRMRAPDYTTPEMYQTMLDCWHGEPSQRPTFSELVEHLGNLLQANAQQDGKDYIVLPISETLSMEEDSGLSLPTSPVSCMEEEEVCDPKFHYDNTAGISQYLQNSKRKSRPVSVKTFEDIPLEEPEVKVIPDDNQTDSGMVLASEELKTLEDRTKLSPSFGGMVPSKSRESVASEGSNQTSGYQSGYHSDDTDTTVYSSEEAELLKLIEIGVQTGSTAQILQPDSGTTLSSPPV
Sequence of VEGFR2 (P35968 whole entry): as above
Sequence of Epidermal growth factor receptor (P00533 whole entry): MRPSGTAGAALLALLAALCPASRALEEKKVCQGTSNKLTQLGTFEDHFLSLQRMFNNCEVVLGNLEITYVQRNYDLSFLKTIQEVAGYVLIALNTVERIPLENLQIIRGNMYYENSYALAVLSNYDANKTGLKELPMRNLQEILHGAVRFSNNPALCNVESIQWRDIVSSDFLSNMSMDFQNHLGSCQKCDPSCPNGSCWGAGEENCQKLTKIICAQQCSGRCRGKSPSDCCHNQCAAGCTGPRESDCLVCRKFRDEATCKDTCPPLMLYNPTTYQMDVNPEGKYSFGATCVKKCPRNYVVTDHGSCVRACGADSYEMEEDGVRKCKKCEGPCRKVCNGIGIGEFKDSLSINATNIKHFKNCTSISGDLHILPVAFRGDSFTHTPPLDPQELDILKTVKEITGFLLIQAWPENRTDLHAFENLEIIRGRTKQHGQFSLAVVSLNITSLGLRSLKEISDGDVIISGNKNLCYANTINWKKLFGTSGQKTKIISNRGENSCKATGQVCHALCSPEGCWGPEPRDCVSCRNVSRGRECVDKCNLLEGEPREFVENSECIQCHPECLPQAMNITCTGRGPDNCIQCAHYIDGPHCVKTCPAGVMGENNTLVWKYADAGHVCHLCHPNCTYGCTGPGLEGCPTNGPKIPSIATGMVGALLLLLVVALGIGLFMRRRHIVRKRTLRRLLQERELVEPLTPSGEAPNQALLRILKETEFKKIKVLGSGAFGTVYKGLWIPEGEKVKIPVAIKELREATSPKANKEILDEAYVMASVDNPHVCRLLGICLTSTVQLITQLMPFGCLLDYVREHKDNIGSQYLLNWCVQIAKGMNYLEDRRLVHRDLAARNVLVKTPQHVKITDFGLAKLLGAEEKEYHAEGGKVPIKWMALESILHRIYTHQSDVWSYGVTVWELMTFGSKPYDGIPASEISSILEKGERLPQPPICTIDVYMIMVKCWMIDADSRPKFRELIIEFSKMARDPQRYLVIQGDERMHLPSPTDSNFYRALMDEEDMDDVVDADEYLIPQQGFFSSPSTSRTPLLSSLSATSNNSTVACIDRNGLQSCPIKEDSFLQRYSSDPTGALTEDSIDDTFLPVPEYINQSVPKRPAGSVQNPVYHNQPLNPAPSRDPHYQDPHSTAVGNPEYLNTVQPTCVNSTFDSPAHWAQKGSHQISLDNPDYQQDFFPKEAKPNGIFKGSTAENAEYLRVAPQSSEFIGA
Sequence of Cytochrome P450 3A4 (P08684 whole entry): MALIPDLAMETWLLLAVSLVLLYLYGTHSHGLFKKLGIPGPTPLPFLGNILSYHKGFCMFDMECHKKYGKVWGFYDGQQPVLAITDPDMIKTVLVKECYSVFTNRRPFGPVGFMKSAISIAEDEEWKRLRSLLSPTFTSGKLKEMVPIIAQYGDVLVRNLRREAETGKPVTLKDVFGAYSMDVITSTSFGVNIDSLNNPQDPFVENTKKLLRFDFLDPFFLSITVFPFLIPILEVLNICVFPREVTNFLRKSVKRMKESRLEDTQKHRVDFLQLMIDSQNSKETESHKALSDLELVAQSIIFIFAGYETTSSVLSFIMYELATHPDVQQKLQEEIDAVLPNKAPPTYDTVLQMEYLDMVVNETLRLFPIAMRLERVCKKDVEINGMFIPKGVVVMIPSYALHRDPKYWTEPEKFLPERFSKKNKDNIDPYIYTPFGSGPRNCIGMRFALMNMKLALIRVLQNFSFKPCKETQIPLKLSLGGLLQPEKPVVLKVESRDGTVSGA
Sequence of Macrophage colony-stimulating factor 1 receptor (P07333 whole entry): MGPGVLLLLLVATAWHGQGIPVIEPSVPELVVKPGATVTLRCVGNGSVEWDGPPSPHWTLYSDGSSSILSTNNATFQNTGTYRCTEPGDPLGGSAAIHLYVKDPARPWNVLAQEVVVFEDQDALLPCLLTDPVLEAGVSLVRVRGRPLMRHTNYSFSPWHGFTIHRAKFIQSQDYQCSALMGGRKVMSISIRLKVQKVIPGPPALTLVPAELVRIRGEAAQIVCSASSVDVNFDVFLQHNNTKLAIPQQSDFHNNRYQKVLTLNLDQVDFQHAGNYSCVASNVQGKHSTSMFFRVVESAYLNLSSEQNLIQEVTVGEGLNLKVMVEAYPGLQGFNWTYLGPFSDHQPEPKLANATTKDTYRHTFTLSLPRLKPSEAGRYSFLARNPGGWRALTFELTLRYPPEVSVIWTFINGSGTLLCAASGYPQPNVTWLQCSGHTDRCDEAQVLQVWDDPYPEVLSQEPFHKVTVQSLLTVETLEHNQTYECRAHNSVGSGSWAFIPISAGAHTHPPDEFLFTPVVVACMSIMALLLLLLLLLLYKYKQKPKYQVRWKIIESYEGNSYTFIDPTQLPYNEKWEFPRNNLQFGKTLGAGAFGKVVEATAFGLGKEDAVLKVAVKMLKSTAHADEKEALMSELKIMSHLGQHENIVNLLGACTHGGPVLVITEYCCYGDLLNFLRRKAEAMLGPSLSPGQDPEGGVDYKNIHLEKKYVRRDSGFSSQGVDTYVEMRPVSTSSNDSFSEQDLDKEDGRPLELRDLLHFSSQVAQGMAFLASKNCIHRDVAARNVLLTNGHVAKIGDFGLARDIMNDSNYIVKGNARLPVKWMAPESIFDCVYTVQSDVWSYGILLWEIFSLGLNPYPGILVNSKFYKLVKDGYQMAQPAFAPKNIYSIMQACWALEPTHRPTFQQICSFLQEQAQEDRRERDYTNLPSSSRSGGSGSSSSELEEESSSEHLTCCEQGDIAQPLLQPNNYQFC

SMILES | Papp A→B at 2.5 h, 2 µM [1] | IC50 [2] | IC50 [3] | IC50 [4] | remaining at 2 h, 2 µM [5] | CLint scaled at 1 µM [6] | inhibition at 2 h, 10 µM [7] | inhibition [8] | inhibition [9] | IC50 [10] | IC50 [11] | IC50 [12] | IC50 [13]
C=CC(=O)Nc1cccc(C)c1Nc1ncc(OCc2c(F)c(OC)cc(OC)c2F)cn1 | 8.6 ×10⁻⁶ cm/s | > 50 µM | 3.7 µM | 6.9 µM | 13% | 9640 mL/min/kg | 19% | 7% | 7% | > 10 µM | > 10 µM | > 10 µM | > 10 µM
C=CC(=O)Nc1cccc(C)c1Nc1ncc2cc(-c3c(Cl)c(OC)cc(OC)c3Cl)ccc2n1 | 0.35 ×10⁻⁶ cm/s | 15.9 µM | 0.9 µM | 3 µM | 63% | 97 mL/min/kg | 23% | -7% | 12% | > 10 µM | > 10 µM | 1.1 µM | > 10 µM
C=CC(=O)N[C@H]1COC[C@H]1Nc1ncc(OCc2c(F)c(OC)cc(OC)c2F)cn1 | 7.3 ×10⁻⁶ cm/s | > 50 µM | 29.1 µM | 13.3 µM | 97% | 474 mL/min/kg | 11% | 14% | 9% | > 10 µM | > 10 µM | > 10 µM | > 10 µM
